One data set has as its system recombinant NL4-3 virus. The experiment in a line: HIV cell culture assay (antiviral activity, luciferase readout). In kind it is cell-based. As to conditions: Human immunodeficiency virus 1, NL43, MT2, MT-2 cells infected for 4-5 days with recombinant NL4-3 virus carrying Renilla luciferase. The procedure: HIV cell culture assay—MT-2 cells, 293T cells and the proviral DNA clone of NL4-3 virus were obtained from the NIH AIDS Research and Reference Reagent Program. MT-2 cells were propagated in RPMI 1640 media supplemented with 10% heat inactivated fetal bovine serum (FBS), […]. The 293T cells were propagated in DMEM media supplemented with 10% heat inactivated FBS, […]. A recombinant NL4-3 proviral clone, in which a section of the nef gene was replaced with the Renilla luciferase gene, was used to make the reference virus used in these studies. The recombinant virus was prepared through transfection of the recombinant NL4-3 proviral clone into 293T cells using Transit-293 Transfection Reagent from Mirus Bio LLC (Madison, WI). Supernatent was harvested after 2-3 days and the amount of virus present was titered in MT-2 cells using luciferase enzyme activity as a marker by measuring luciferase enzyme activity. Luciferase was quantitated using the EnduRen Live Cell Substrate from Promega (Madison, Wis.). Antiviral activities of compounds toward the recombinant virus were quantified by measuring luciferase activity in MT-2 cells infected for 4-5 days with the recombinant virus in the presence of serial dilutions of the compound.
The 50% effective concentration (EC50) was calculated by using the exponential form of the median effect equation where (Fa)=1/[1+(ED50/drug conc.)m] (Johnson VA, Byington RT. Infectivity Assay. In Techniques in HIV Research. ed. Aldovini A, Walker BD. 71-76. New York: Stockton Press. 1990). The 50% inhibitory concentration (EC50) was calculated by using the exponential form of the median effect equation where percent inhibition=1/[1+(EC50/drug concentration)m], where m is a parameter that reflects the slope of the concentration-response curve.

Data set [1] in a line: Compound cytotoxicity, XTT-based colorimetric assay. As to conditions: human; uninfected MT2 cells, day 4, XTT assay. In kind it is cell-based. The procedure:
Compound cytotoxicity and the corresponding CC50 values were determined using the same protocol as described in the antiviral assay except that uninfected cells were used. Cytotoxicity was assessed on day 4 in uninfected MT2 cells by using a XTT (2,3-bis[2-Methoxy-4-nitro-5-sulfophenyl]-2H-tetrazolium-5-carboxyanilide inner salt)-based colorimetric assay (Sigma-Aldrich, St Louis, Mo.).

SMILES strings stand for the structures.

Turning to `Cc1ccnc(-c2ccc3c(=O)n(-c4ccc(Cl)c5c(NS(C)(=O)=O)nn(C)c45)c([C@H](Cc4cc(F)cc(F)c4)NC(=O)Cn4nc(C(F)F)c5c4C(F)(F)[C@@H]4C[C@H]54)nc3n2)n1` (atropisomer, axis not shown; (P)) [Example 10, N-((S)-1-((3P)-3-(4-chloro-1-methyl-3-(methylsulfonamido)-1H-indazol-7-yl)-7-(4-methylpyrimidin-2-yl)-4-oxo-3,4-dihydropyrido[2,3-d]pyrimidin-2-yl)-2-(3,5-difluorophenyl)ethyl)-2-((3bS,4aR)-3-(difluoromethyl)-5,5-difluoro-3b,4,4a,5-tetrahydro-1H-cyclopropa[3,4]cyclopenta[1,2-c]pyrazol-1-yl)acetamide], in the data set with recombinant NL4-3 virus, the EC50 (commonly the concentration that produces a half-maximal response) was 30 pM. Besides, the CC50 (as a rule, the concentration at which the toxic effect on the cells reaches its halfway point) at 4 day in data set [1] is over 100000 pM.
As for `Cn1nc(NS(C)(=O)=O)c2c(Cl)ccc(-n3c([C@H](Cc4cc(F)cc(F)c4)NC(=O)Cn4nc(C(F)F)c5c4C(F)(F)[C@@H]4C[C@H]54)nc4nc(-c5cnc(C(C)(F)F)s5)ccc4c3=O)c21` (atropisomer, axis not shown; (P)) [Example 99, N-((S)-1-((3P)-3-(4-chloro-1-methyl-3-(methylsulfonamido)-1H-indazol-7-yl)-7-(2-(1,1-difluoroethyl)thiazol-5-yl)-4-oxo-3,4-dihydropyrido[2,3-d]pyrimidin-2-yl)-2-(3,5-difluorophenyl)ethyl)-2-((3bS,4aR)-3-(difluoromethyl)-5,5-difluoro-3b,4,4a,5-tetrahydro-1H-cyclopropa[3,4]cyclopenta[1,2-c]pyrazol-1-yl)acetamide], the EC50 in the data set on recombinant NL4-3 virus came to 62 pM. In data set [1], this compound yielded a CC50 at 4 day of over 100000 pM.
On the same counts, the results for `Cc1cc(-c2ccc3c(=O)n(-c4ccc(Cl)c5c(NS(C)(=O)=O)nn(C)c45)c([C@H](Cc4cc(F)cc(F)c4)NC(=O)Cn4nc(C(F)F)c5c4C(F)(F)[C@@H]4C[C@H]54)nc3n2)n(CC(C)(F)F)n1` (single isomer, unassigned) [Example 97] are 12000 pM and over 100000 pM.
On the same counts, the results for `Cn1nc(NS(C)(=O)=O)c2c(Cl)ccc(-n3c([C@H](Cc4cc(F)cc(F)c4)NC(=O)Cn4nc(C(F)F)c5c4C(F)(F)[C@@H]4C[C@H]54)nc4nc(-n5ccc(C(F)(F)F)n5)ccc4c3=O)c21` (atropisomer, axis not shown; (P)) [Example 65, N-((S)-1-((3P)-3-(4-chloro-1-methyl-3-(methylsulfonamido)-1H-indazol-7-yl)-4-oxo-7-(3-(trifluoromethyl)-1H-pyrazol-1-yl)-3,4-dihydropyrido[2,3-d]pyrimidin-2-yl)-2-(3,5-difluorophenyl)ethyl)-2-((3bS,4aR)-3-(difluoromethyl)-5,5-difluoro-3b,4,4a,5-tetrahydro-1H-cyclopropa[3,4]cyclopenta[1,2-c]pyrazol-1-yl)acetamide] are 62 pM and over 100000 pM.
For `Cn1nc(NS(C)(=O)=O)c2c(Cl)ccc(-n3c([C@H](Cc4cc(F)cc(F)c4)NC(=O)Cn4nc(C(F)F)c5c4C(F)(F)[C@@H]4C[C@H]54)nc4nc(-c5nc(C(F)(F)F)ccc5F)ccc4c3=O)c21` (atropisomer, axis not shown; (P)) [Example 36, N-((S)-1-((3P)-3-(4-chloro-1-methyl-3-(methylsulfonamido)-1H-indazol-7-yl)-7-(3-fluoro-6-(trifluoromethyl)pyridin-2-yl)-4-oxo-3,4-dihydropyrido[2,3-d]pyrimidin-2-yl)-2-(3,5-difluorophenyl)ethyl)-2-((3bS,4aR)-3-(difluoromethyl)-5,5-difluoro-3b,4,4a,5-tetrahydro-1H-cyclopropa[3,4]cyclopenta[1,2-c]pyrazol-1-yl)acetamide] the same measures were 45 pM and over 100000 pM.
For `Cn1nc(NS(C)(=O)=O)c2c(Cl)ccc(-n3c([C@H](Cc4cc(F)cc(F)c4)NC(=O)Cn4nc(C(F)F)c5c4C(F)(F)[C@@H]4C[C@H]54)nc4nc(-c5cccc(OC(F)(F)F)c5)ccc4c3=O)c21` (atropisomer, axis not shown; (P)) [Example 21, N-((S)-1-((3P)-3-(4-chloro-1-methyl-3-(methylsulfonamido)-1H-indazol-7-yl)-4-oxo-7-(3-(trifluoromethoxy)phenyl)-3,4-dihydropyrido[2,3-d]pyrimidin-2-yl)-2-(3,5-difluorophenyl)ethyl)-2-((3bS,4aR)-3-(difluoromethyl)-5,5-difluoro-3b,4,4a,5-tetrahydro-1H-cyclopropa[3,4]cyclopenta[1,2-c]pyrazol-1-yl)acetamide], in the data set on recombinant NL4-3 virus, the EC50 turned out to be 390 pM. Further, the CC50 at 4 day in data set [1] was over 100000 pM.
On the same counts, the results for `Cn1nc(NS(C)(=O)=O)c2c(Cl)ccc(-n3c([C@H](Cc4cc(F)cc(F)c4)NC(=O)Cn4nc(C(F)F)c5c4C(F)(F)[C@@H]4C[C@H]54)nc4nc(-c5cc(C(F)(F)F)[nH]n5)ccc4c3=O)c21` (atropisomer, axis not shown; (P)) [Example 90, N-((S)-1-((3P)-3-(4-chloro-1-methyl-3-(methylsulfonamido)-1H-indazol-7-yl)-4-oxo-7-(5-(trifluoromethyl)-1H-pyrazol-3-yl)-3,4-dihydropyrido[2,3-d]pyrimidin-2-yl)-2-(3,5-difluorophenyl)ethyl)-2-((3bS,4aR)-3-(difluoromethyl)-5,5-difluoro-3b,4,4a,5-tetrahydro-1H-cyclopropa[3,4]cyclopenta[1,2-c]pyrazol-1-yl)acetamide] are 98 pM and over 100000 pM.
For `Cn1nc(NS(C)(=O)=O)c2c(Cl)ccc(-n3c([C@H](Cc4cc(F)cc(F)c4)NC(=O)Cn4nc(C(F)F)c5c4C(F)(F)[C@@H]4C[C@H]54)nc4nc(-c5ccn(CCC(F)(F)F)n5)ccc4c3=O)c21` (atropisomer, axis not shown; (P)) [Example 89, N-((S)-1-((3P)-3-(4-chloro-1-methyl-3-(methylsulfonamido)-1H-indazol-7-yl)-4-oxo-7-(1-(3,3,3-trifluoropropyl)-1H-pyrazol-3-yl)-3,4-dihydropyrido[2,3-d]pyrimidin-2-yl)-2-(3,5-difluorophenyl)ethyl)-2-((3bS,4aR)-3-(difluoromethyl)-5,5-difluoro-3b,4,4a,5-tetrahydro-1H-cyclopropa[3,4]cyclopenta[1,2-c]pyrazol-1-yl)acetamide] the same measures were 56 pM and over 100000 pM.
For `Cn1nc(NS(C)(=O)=O)c2c(Cl)ccc(-n3c([C@H](Cc4cc(F)cc(F)c4)NC(=O)Cn4nc(C(F)F)c5c4C(F)(F)[C@@H]4C[C@H]54)nc4nc(-c5ccn(CC(F)F)n5)ccc4c3=O)c21` (atropisomer, axis not shown; (P)) [Example 79, N-((S)-1-((3P)-3-(4-chloro-1-methyl-3-(methylsulfonamido)-1H-indazol-7-yl)-7-(1-(2,2-difluoroethyl)-1H-pyrazol-3-yl)-4-oxo-3,4-dihydropyrido[2,3-d]pyrimidin-2-yl)-2-(3,5-difluorophenyl)ethyl)-2-((3bS,4aR)-3-(difluoromethyl)-5,5-difluoro-3b,4,4a,5-tetrahydro-1H-cyclopropa[3,4]cyclopenta[1,2-c]pyrazol-1-yl)acetamide] the same measures were 47 pM and over 100000 pM.
For `Cn1nc(NS(C)(=O)=O)c2c(Cl)ccc(-n3c([C@H](Cc4cc(F)cc(F)c4)NC(=O)Cn4nc(C(F)F)c5c4C(F)(F)[C@@H]4C[C@H]54)nc4nc(-c5ccnn5C5CC5)ccc4c3=O)c21` (atropisomer, axis not shown; (P)) [Example 77, N-((S)-1-((3P)-3-(4-chloro-1-methyl-3-(methylsulfonamido)-1H-indazol-7-yl)-7-(1-cyclopropyl-1H-pyrazol-5-yl)-4-oxo-3,4-dihydropyrido[2,3-d]pyrimidin-2-yl)-2-(3,5-difluorophenyl)ethyl)-2-((3bS,4aR)-3-(difluoromethyl)-5,5-difluoro-3b,4,4a,5-tetrahydro-1H-cyclopropa[3,4]cyclopenta[1,2-c]pyrazol-1-yl)acetamide], in the data set on recombinant NL4-3 virus, the concentration for a half-maximal effect (EC50) came out at 73 pM. The same compound yielded a CC50 at 4 day in data set [1] of over 100000 pM.
For `COc1ncc(-c2ccc3c(=O)n(-c4ccc(Cl)c5c(NS(C)(=O)=O)nn(C)c45)c([C@H](Cc4cc(F)cc(F)c4)NC(=O)Cn4nc(C(F)F)c5c4C(F)(F)[C@@H]4C[C@H]54)nc3n2)s1` (atropisomer, axis not shown; (P)) [Example 82, N-((S)-1-((3P)-3-(4-chloro-1-methyl-3-(methylsulfonamido)-1H-indazol-7-yl)-7-(2-methoxythiazol-5-yl)-4-oxo-3,4-dihydropyrido[2,3-d]pyrimidin-2-yl)-2-(3,5-difluorophenyl)ethyl)-2-((3bS,4aR)-3-(difluoromethyl)-5,5-difluoro-3b,4,4a,5-tetrahydro-1H-cyclopropa[3,4]cyclopenta[1,2-c]pyrazol-1-yl)acetamide] the same measures were 69 pM and over 100000 pM.

Values taken from patent US20220389007A1, “INHIBITORS OF HUMAN IMMUNODEFICIENCY VIRUS REPLICATION” (VIIV HEALTHCARE UK (No. 5) LIMITED, priority 2019, published 2022).
